According to PubChem BioAssay AID192 (DTP/NCI, 2004):
“And” between values parts separate entries of the source, which are not always exact repeats. Equal entries are not always repeated. Toxic doses and inconclusive results are not listed. How the source made its calls: active means survival T/C of 150% or more; inactive means T/C below 125% in these data.

Test system: BDF1 mice, B16 melanoma ip, median survival T/C
Assay: NCI In Vivo Anticancer Drug Screen. Data for tumor model B16 Melanoma (intraperitoneal) in B6D2F1 (BDF1) mice
Settings: endpoint: median survival time, higher = longer survival
Procedure, shortened: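 Tumor-bearing mice received test compound or vehicle. Survival or tumor size was then measured in both groups. The treated-group figure was divided by the control-group figure.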

[1] = dose: 12.5 mg/kg/injection, schedule: Q01DX009 (ip), vehicle: Klucel (hydroxypropylcellulose) (HPC)
[2] = dose: 25.0 mg/kg/injection, schedule: Q01DX009 (ip), vehicle: Klucel (hydroxypropylcellulose) (HPC)
[3] = dose: 100.0 mg/kg/injection, schedule: Q01DX009 (ip), vehicle: Klucel (hydroxypropylcellulose) (HPC)
[4] = dose: 200.0 mg/kg/injection, schedule: Q01DX009 (ip), vehicle: Klucel (hydroxypropylcellulose) (HPC)
[5] = dose: 400.0 mg/kg/injection, schedule: Q01DX009 (ip), vehicle: Klucel (hydroxypropylcellulose) (HPC)
[6] = dose: 25.0 mg/kg/injection, schedule: Q01DX009 (ip), vehicle: saline with Tween-80
[7] = dose: 50.0 mg/kg/injection, schedule: Q01DX009 (ip), vehicle: saline with Tween-80
[8] = dose: 100.0 mg/kg/injection, schedule: Q01DX009 (ip), vehicle: saline with Tween-80
[9] = dose: 25.0 mg/kg/injection, schedule: Q01DX009 (ip), vehicle: saline
[10] = dose: 50.0 mg/kg/injection, schedule: Q01DX009 (ip), vehicle: saline
[11] = dose: 200.0 mg/kg/injection, schedule: Q01DX009 (ip), vehicle: saline
[12] = dose: 50.0 mg/kg/injection, schedule: Q01DX009 (ip), vehicle: Klucel (hydroxypropylcellulose) (HPC)
[13] = dose: 1.5 mg/kg/injection, schedule: Q01DX009 (ip), vehicle: saline with Tween-80
[14] = dose: 12.5 mg/kg/injection, schedule: Q01DX009 (ip), vehicle: saline with Tween-80
[15] = dose: 200.0 mg/kg/injection, schedule: Q01DX009 (ip), vehicle: saline with Tween-80
[16] = dose: 400.0 mg/kg/injection, schedule: Q01DX009 (ip), vehicle: saline with Tween-80
[17] = dose: 12.5 mg/kg/injection, schedule: Q01DX009 (ip), vehicle: saline
[18] = dose: 100.0 mg/kg/injection, schedule: Q01DX009 (ip), vehicle: saline

Measured: T/C

COc1cc2c(cc1OC)-c1ccc3cc4c(cc3c1N(C)C2)OCO4
inactive: dose: 5.0 mg/kg/injection, schedule: Q01DX009 (ip), vehicle: water 103 % of control | dose: 10.0 mg/kg/injection, schedule: Q01DX009 (ip), vehicle: water 102 % of control | dose: 20.0 mg/kg/injection, schedule: Q01DX009 (ip), vehicle: water 100 % of control | dose: 40.0 mg/kg/injection, schedule: Q01DX009 (ip), vehicle: water 101 % of control | dose: 80.0 mg/kg/injection, schedule: Q01DX009 (ip), vehicle: water 102 % of control

COC(=O)C1C(O)C(C)C(O)C(C)C=C(C)C2=C3C(=C(C)C(=O)c4c(O)c(c(C)c(OC(C)=O)c43)NC(=O)C(C)=C/C=C\C(C)C(O)C(C)C1O)OCO2 (stereo unspecified)
inactive: dose: 6.25 mg/kg/injection, schedule: Q01DX009 (ip), vehicle: Klucel (hydroxypropylcellulose) (HPC) 97 % of control | [1] 94 % of control | [2] 88 % of control | dose: 25.0 mg/kg/injection, schedule: Q01DX009 (ip), vehicle: carboxymethylcellulose (CMC) 112 % of control | dose: 50.0 mg/kg/injection, schedule: Q01DX009 (ip), vehicle: carboxymethylcellulose (CMC) 112 % of control | [3] 89 % of control

CN(C)c1ccc(C=Nc2ccc3c(c2)Cc2ccccc2-3)cc1
inactive: [3] 106 % of control | [4] 93 % of control | [5] 90 % of control

Cc1ccc(NC(=O)Nc2cccc(C(F)(F)F)c2)cc1NC(=O)Nc1cccc(C(F)(F)F)c1
inactive: [6] 103 % of control | [7] 91 % of control | [8] 96 % of control

CC(CO)NC(=O)C1C=C2c3cccc4[nH]cc(c34)CC2N(C)C1 (stereo unspecified)
inactive: [9] 91 % of control | [10] 91 % of control | [11] 86 % of control

CN(C(=N)N)c1ccc(C(=O)Oc2ccc([N+](=O)[O-])cc2)cc1
inactive: [12] 104 % of control | [3] 101 % of control | [4] 103 % of control

CCCCCCCCOC(=O)Nc1ccc(OCC)cc1
inactive: [13] 107 % of control | dose: 3.0 mg/kg/injection, schedule: Q01DX009 (ip), vehicle: saline with Tween-80 96 % of control | dose: 6.0 mg/kg/injection, schedule: Q01DX009 (ip), vehicle: saline with Tween-80 96 % of control

CCCCCCCCCCCC(c1ccccc1)[N+](C)(C)Cc1ccccc1 (stereo unspecified)
inactive: dose: 0.25 mg/kg/injection, schedule: Q01DX009 (ip), vehicle: saline sonified 94 % of control | dose: 0.5 mg/kg/injection, schedule: Q01DX009 (ip), vehicle: saline sonified 110 % of control | dose: 1.0 mg/kg/injection, schedule: Q01DX009 (ip), vehicle: saline sonified 105 % of control | dose: 2.0 mg/kg/injection, schedule: Q01DX009 (ip), vehicle: saline sonified 102 % of control

COc1ccc(C(=O)c2no[n+]([O-])c2C(=O)c2ccc(OC)cc2)cc1
inactive: [14] 95 % of control | [6] 107 % of control | [7] 101 % of control | [8] 95 % of control | [15] 87 % of control | [16] 113 % of control

O=C(Nc1ccccc1)c1ccc(C(F)(F)F)cc1O
inactive: [2] 95 % of control | [12] 95 % of control

O=C1C(N2CC2)=C(N2CCCC(O)C2)C(=O)C(N2CC2)=C1N1CCCC(O)C1 (stereo unspecified)
inactive: dose: 0.25 mg/kg/injection, schedule: Q01DX009 (ip), vehicle: saline 113 % of control | dose: 0.5 mg/kg/injection, schedule: Q01DX009 (ip), vehicle: saline 120 % of control

O=S(=O)(O)c1ccc(/C2=c3\cc/c([n-]3)=C(\c3ccc(S(=O)(=O)O)cc3)c3ccc([n-]3)/C(c3ccc(S(=O)(=O)O)cc3)=c3/cc/c([n-]3)=C(\c3ccc(S(=O)(=O)O)cc3)c3ccc2[n-]3)cc1.[Co]
inactive: dose: 3.13 mg/kg/injection, schedule: Q01DX009 (ip), vehicle: saline 111 % of control | dose: 6.25 mg/kg/injection, schedule: Q01DX009 (ip), vehicle: saline 107 % of control | [17] 108 % of control | [9] 101 % of control

NC(CC(=O)NC(=O)OCc1ccccc1)C(=O)O (stereo unspecified)
inactive: [8] 100 % of control | [15] 105 % of control | [16] 110 % of control

CC(C)CC(NC(=O)c1ccccc1)C(=O)O (stereo unspecified)
inactive: [8] 97 % of control

COC(=O)/C=C/c1ccc(OC)cc1
inactive: [3] 97 % of control | [4] 97 % of control | dose: 200.0 mg/kg/injection, schedule: Q04DX003 (ip), vehicle: Klucel (hydroxypropylcellulose) (HPC) 86 % of control | [5] 97 % of control | dose: 400.0 mg/kg/injection, schedule: Q04DX003 (ip), vehicle: Klucel (hydroxypropylcellulose) (HPC) 100 % of control

CCC[CH2][Sn]1([CH2]CCC)[O]OC(c2ccc(C)cc2)[O]1 (stereo unspecified)
inactive: dose: 0.38 mg/kg/injection, schedule: Q01DX009 (ip), vehicle: saline with Tween-80 96 % of control | dose: 0.75 mg/kg/injection, schedule: Q01DX009 (ip), vehicle: saline with Tween-80 96 % of control | [13] 101 % of control | dose: 3.13 mg/kg/injection, schedule: Q01DX009 (ip), vehicle: saline with Tween-80 115 % of control

C=CCc1cn(C2CC(O)C(CO)O2)c(=O)[nH]c1=O (stereo unspecified)
inactive: [17] 104 % of control | [9] 105 % of control | [10] 104 % of control | [18] 105 % of control | [11] 105 % of control | dose: 400.0 mg/kg/injection, schedule: Q01DX009 (ip), vehicle: saline 107 % of control

CCN(CC)CCOc1ccc2c(c1)C(=O)c1cc(OCCN(CC)CC)ccc1-2
inactive: dose: 13.0 mg/kg/injection, schedule: Q01DX009 (ip), vehicle: saline 124 % of control | dose: 21.6 mg/kg/injection, schedule: Q01DX009 (ip), vehicle: saline 123 % of control | [18] 124 % of control

CC1(C)N=C(N)N=C(N)N1c1cccc(CCC(=O)Nc2ccc(S(=O)(=O)F)cc2)c1
inactive: dose: 30.0 mg/kg/injection, schedule: Q01DX009 (ip), vehicle: saline with Tween-80 113 % of control | dose: 60.0 mg/kg/injection, schedule: Q01DX009 (ip), vehicle: saline with Tween-80 123 % of control | dose: 120.0 mg/kg/injection, schedule: Q01DX009 (ip), vehicle: saline with Tween-80 110 % of control

O=c1[nH]c2cc(Cl)ccc2c(CCl)c1Cl
inactive: [6] 88 % of control and 95 % of control | [7] 88 % of control and 95 % of control | [8] 93 % of control and 100 % of control

Nc1nc(SCc2ccccc2F)c2ncn(C3OC(CO)C(O)C3O)c2n1 (stereo unspecified)
inactive: dose: 3.12 mg/kg/injection, schedule: Q01DX009 (ip), vehicle: saline with Tween-80 105 % of control | dose: 6.25 mg/kg/injection, schedule: Q01DX009 (ip), vehicle: saline with Tween-80 116 % of control | [14] 122 % of control | [6] 95 % of control

Cc1cccc(NS(=O)(=O)c2ccccc2)c1C
inactive: [7] 98 % of control | [3] 96 % of control | [8] 98 % of control | [15] 97 % of control | [5] 88 % of control

NNC(=S)N/N=C/c1ccc([N+](=O)[O-])s1
inactive: [2] 88 % of control | [3] 89 % of control

CCCCOc1ccc(NC(=O)CCl)cc1
inactive: [14] 99 % of control | [6] 100 % of control | [7] 99 % of control

COc1cc(OC)c2c(O)c3c(c(-c4ccc5cc6c(c(O)c5c4O)C(=O)CC(C)(O)C6)c2c1)CC(C)OC3C (stereo unspecified)
inactive: dose: 0.5 mg/kg/injection, schedule: Q01DX009 (ip), vehicle: Klucel (hydroxypropylcellulose) (HPC) 94 % of control | dose: 1.0 mg/kg/injection, schedule: Q01DX009 (ip), vehicle: Klucel (hydroxypropylcellulose) (HPC) 102 % of control | dose: 2.0 mg/kg/injection, schedule: Q01DX009 (ip), vehicle: Klucel (hydroxypropylcellulose) (HPC) 111 % of control

CC(C)c1ccc(C(c2c(O)c3ccccc3oc2=O)c2c(O)c3ccccc3oc2=O)cc1
inactive: [1] 99 % of control | [2] 97 % of control | [12] 107 % of control

NC(Cc1cc(I)c(Oc2cc(I)c(O)c(I)c2)c(I)c1)C(=O)O (stereo unspecified)
inactive: dose: 1.0 mg/kg/injection, schedule: Q01DX009 (ip), vehicle: saline 93 % of control | dose: 2.0 mg/kg/injection, schedule: Q01DX009 (ip), vehicle: saline 101 % of control | dose: 4.0 mg/kg/injection, schedule: Q01DX009 (ip), vehicle: saline 92 % of control | dose: 16.0 mg/kg/injection, schedule: Q01DX009 (ip), vehicle: saline 101 % of control
